The text below walks through data of patent publication US8236937B2, “Methods and compositions for the detection and isolation of ligands” (InDanio Bioscience Inc., priority 2005, dated 2012).

In assay [1] the target is T1, GAL4-DHR96 (Drosophila hormone receptor 96) fusion protein (Drosophila melanogaster, UniProt Q24143).
T1 construct: expressed in transfected cells; host or cells: transgenic Drosophila embryos carrying GAL4-DHR96 and a UAS-GFP reporter
T1 sequence (Q24143 483-723 limits assumed): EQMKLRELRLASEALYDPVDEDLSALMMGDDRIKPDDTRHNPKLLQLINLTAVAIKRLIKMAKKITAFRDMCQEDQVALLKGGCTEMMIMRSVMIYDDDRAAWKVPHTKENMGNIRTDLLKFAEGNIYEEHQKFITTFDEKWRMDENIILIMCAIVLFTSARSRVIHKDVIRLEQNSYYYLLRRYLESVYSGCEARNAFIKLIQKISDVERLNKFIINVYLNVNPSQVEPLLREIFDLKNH
Description: Ligand trap GFP reporter screen in transgenic Drosophila embryos (GAL4-DHR96, UAS-GFP). It counts as in vivo. The conditions noted are these: 10^−5 molar vs control media, FIG. 7 panel A.
Description: CITCO is a component of a small molecule library used to screen for novel DHR96 ligands.

Assay [2] concerns fish glucocorticoid receptor (GR). Conditions: agonist; cited from earlier work.

For `Clc1ccc(-c2nc3sccn3c2/C=N/OCc2ccc(Cl)c(Cl)c2)cc1` [CITCO], in assay [1], the “GFP reporter activation / ligand activity at DHR96” value was “first example of a DHR96-specific ligand”.

With `C[C@]12CCC(=O)C=C1CC[C@@H]1[C@@H]2[C@@H](O)C[C@@]2(C)[C@H]1CC[C@]2(O)C(=O)CO` [cortisol], the “Transcriptional activity of fish GR in the presence of ligand” value in assay [2] is recorded as “able to induce transcriptional activity”.
